US20060189645A1, “Novel 6-phenylphenantridines” (Altana Pharma AG, priority 2003, published 2006)

System: PDE4
Experiment: Inhibition of PDE4 activity ([3H]cAMP hydrolysis, cytosol from human neutrophils)
Assay type: biochemical
Details: 0.5 μM cAMP, Motapizone 1 μM to suppress PDE3, 15 min at 37° C.
Description: Method for Measuring Inhibition of PDE4 Activity
PDE4 activity was determined as described by Thompson et al. (Adv Cycl Nucl Res 10: 69-92, 1979) with some modifications (Bauer and Schwabe, Naunyn-Schmiedeberg's Arch Pharmacol 311: 193-198, 1980). At a final assay volume of 200 μl (96 well microtiter plates) the assay mixture contained 20 mM Tris (pH 7.4), 5 mM MgCl2, 0.5 μM cAMP, [^3H]cAMP (about 30,000 cpm/assay), the test compound and an aliquot of cytosol from human neutrophils which mainly contains PDE4 activity as described by Schudt et al. (Naunyn-Schmiedeberg's Arch Pharmacol 344: 682-690, 1991); the PDE3-specific inhibitor Motapizone (1 μM) was included to suppress PDE3 activity originating from contaminating platelets. Serial dilutions of the compounds were prepared in DMSO and further diluted 1:100 (v/v) in the assays to obtain the desired final concentrations of the inhibitors at a DMSO concentration of 1% (v/v) which by itself only slightly affected PDE4 activity.
After preincubation for 5 min at 37° C., the reaction was started by the addition of substrate (cAMP) and the assays were incubated for further 15 min at 37° C. 50 μl of 0.2 N HCl was added to stop the reaction and the assays were left on ice for about 10 min. Following incubation with 25 μg 5′-nucleotidase (Crotalus atrox snake venom) for 10 min at 37° C., the assays were loaded on QAE Sephadex A-25 (1 ml bed volume). The columns were eluted with 2 ml of 30 mM ammonium formiate (pH 6.0) and the eluate was counted for radioactivity. Results were corrected for blank values (measured in the presence of denatured protein) which were below 5% of total radioactivity. […] The IC50-values for the compounds according to the invention for the inhibition of the PDE4 activity were determined from the concentration-inhibition curves by nonlinear-regression.

Inhibition of the PDE4 activity, −log IC50	SMILES
8.61	COc1cc2c(cc1OC)[C@H]1CCCC[C@H]1N=C2c1ccc(C(C)=NNC(=O)CC#N)cc1 [Compound 2, Cyano-acetic acid {1-[4-((4aR,10bR)-8,9-dimethoxy-1,2,3,4,4a,10b-hexahydro-phenanthridin-6-yl)-phenyl]-ethylidene}-hydrazide]
8.95	COc1cc2c(cc1OC)[C@H]1CCCC[C@H]1N=C2c1ccc(C(C)=NNC(C)=O)cc1 [Compound 4, Acetic acid {1-[4-((4aR,10bR)-8,9-dimethoxy-1,2,3,4,4a,10b-hexahydro-phenanthridin-6-yl)-phenyl]-ethylidene}-hydrazide]
8.64	COc1cc2c(cc1OC)[C@H]1CCCC[C@H]1N=C2c1ccc(C(C)=NNC(N)=O)cc1 [Compound 6, 1-[4-((4aR,10bR)-8,9-Dimethoxy-1,2,3,4,4a,10b-hexahydro-phenanthridin-6-yl)-phenyl]-ethanone-semicarbazone]
8.75	COc1cc2c(cc1OC)C1CCCCC1N=C2c1cccc(C(C)=NNC(N)=O)c1 (centres unmarked) [Compound 37, 1-[3-((4aR10bR)-8,9-Dimethoxy-1,2,3,4,4a,10b-hexahydro-phenanthridin-6-yl)-phenyl]-ethanone-semicarbazone]

Continued, molecule first:

SMILES	Inhibition of the PDE4 activity, −log IC50
COc1cc2c(cc1OC)[C@H]1CCCC[C@H]1N=C2c1ccc(C(C)=NNC(=O)c2cccnc2)cc1 [Compound 1, Nicotinic acid {1-[4-((4aR,10bR)-8,9-dimethoxy-1,2,3,4,4a,10b-hexahydro-phenanthridin-6-yl)-phenyl]-ethylidene}-hydrazide]	8.62
COc1cc2c(cc1OC)[C@H]1CCCC[C@H]1N=C2c1ccc(C(C)=NNC(=O)c2ccncc2)cc1 [Compound 3, Isonicotinic acid {1-[4-((4aR,10bR)-8,9-dimethoxy-1,2,3,4,4a,10b-hexahydro-phenanthridin-6-yl)-phenyl]-ethylidene}-hydrazide]	8.71
COc1cc2c(cc1OC)[C@H]1CCCC[C@H]1N=C2c1ccc(C(=NNC(N)=O)c2ccccc2)cc1 [Compound 7, 1-[4-((4aR,10bR)-8,9-Dimethoxy-1,2,3,4,4a,10b-hexahydro-phenanthridin-6-yl)-phenyl]-1-phenyl-methanone-semicarbazone]	9.38

System: not given
Experiment: not given
Details: not given

SMILES	melting point
COc1cc2c(cc1OC)[C@H]1CCCC[C@H]1N=C2c1ccc(C(C)=NNC(=O)c2cccnc2)cc1 [Compound 1, Nicotinic acid {1-[4-((4aR,10bR)-8,9-dimethoxy-1,2,3,4,4a,10b-hexahydro-phenanthridin-6-yl)-phenyl]-ethylidene}-hydrazide]	162 °C
